Values joined by “and” are separate entries in the source; they are usually repeats but may differ in a detail not shown here. Equal values may be shown once.
How the values were obtained:
HL-60 cells [1] = assay: Labeling of CPT-treated HL-60 cells with FLISP (FFCK, FLCK) and FLICA (FAM-VAD-FMK, SR-VAD-FMK) reagents, by LSC or fluorescence microscopy; assay type: cell-based, Human; conditions: for binding of the ligand by cells treated with CPT vs untreated (control) cells: HL-60, 3 h CPT, combined with PI; for fluorescence of labeled cells (appearance): dual labeling with SR-VAD-FMK, CPT-treated HL-60, microscopy/LSC imaging
Description: (§1) Preparation of reagents: Fluorescent inhibitors of serine proteases (FLISP) reagents, 5(6)-Carboxyfluoresceinyl-L-phenylalanylchloromethyl ketone (FFCK) and 5(6)-carboxyfluoresceinyl-L-leucylchloromethyl ketone (FLCK) were dissolved initially in dimethyl sulfoxide (DMSO; Sigma) to yield a 10 mM concentration. Aliquots were made from this stock solution and stored frozen at −20° C. protected from light. This reagent stock was then diluted directly into the cell culture media to give a 1× working reagent concentration of 10 μM. Dilution of the reagent into aqueous (cell culture) media is done just prior to cell exposure to preserve the labile chloromethyl ketone reactivity of FLISP reagent.
Fluorescent inhibitors of caspases (FLICA) reagents, namely the fluorescein labeled VAD-FMK (FAM-VAD-FMK) and sulforhodamine labeled VAD-FMK (SR-VAD-FMK) (Immunochemistry Technologies; Bloomington, Minn.) were both designed to detect the presence of active caspases within apoptotic cells. These inhibitors were dissolved in DMSO to obtain a 150× concentrated stock solution. Aliquots of these solutions were stored at −20° C. in the dark. Prior to use, a 30× working solution of either FAM-VAD-FMK or SR-VAD-FMK was prepared by diluting the stock solution 1:5 in phosphate buffered saline (PBS) and mixing until the solution become clear. The 30× working solution was diluted 1:30 cell culture media to give a final 1× working reagent concentration of 10 μM.
Cells: Human promyelocytic leukemic HL-60 cells were obtained from American Type Culture Collection (ATCC; Rockville, Md.). They were cultured in 25 mL FALCON flasks (Becton Dickinson Co., Franklin Lakes, N.J.) using RPMI 1640 supplemented with 10% fetal calf serum, 100 units/mL penicillin, […] and 2 mM L-glutamine (all from Gibco/BRL Life Technologies, Inc., Grand Island, N.Y.) in a humidified incubator set to maintain 37.5° C. and 5% CO2 as previously described (Bedner et al., Exp Cell Res., 2000, 259:308-313; Smolewski et al., Cytometry, 2001, 44:73-82). At the onset of experiments, there were fewer than 5×10^5 cells/ml in culture. To induce apoptosis the cells were treated with 0.15 μM DNA topoisomerase I inhibitor camptothecin (CPT; Sigma Chemical Co., St. Louis, Mo.) for 3 hours.
Cell staining and fluorescence measurement by LSC: The HL-60 cells from the untreated or CPT treated cultures were centrifuged (200 g, 5 min) and resuspended in PBS at approximately 10^4 cells per 5 mL volume. Cells were then attached electrostatically to microscope slides as described before (Bedner et al., Exp Cell Res., 2000, 259:308-313; Smolewski et al., Cytometry, 2001, 44:73-82). The attachment was achieved by the incubation (15 min) of cells suspended in serum-free PBS in shallow (<1 mm depth; 1.5×1.5 cm) wells on horizontally placed microscope slides that were rinsed in 100% ethanol and air dried prior to use, at 100% humidity. The electrostatically attached cells remain viable, exclude such dyes as trypan blue and propidium iodide (PI), and have unchanged morphology for several hours (Bedner et al., Exp Cell Res., 2000, 259:308-313). After the cells became attached, PBS was removed from the wells and was replaced by 150 μL of the culture medium containing 10% FCS. FLISP staining solutions were prepared by diluting 5 μL of the 10 mM FFCK or FLCK stock solution into 5 mL of culture medium yielding a final FLISP concentration 10 μM. […]

HL-60 cells [2] = assay: Pretreatment of HL-60 cells with unlabeled protease inhibitors during CPT induction of apoptosis; subsequent binding of FAM-VAD-FMK, FFCK or FLCK measured by LSC; assay type: cell-based, Human; conditions: HL-60, 0.15 μM CPT 3 h, pretreatment with unlabeled inhibitor (Z-VAD-FMK 50 μM); probe 10 μM; mean ± SE of three experiments
Description: as §1
Fluorescent inhibitors of caspases (FLICA) reagents, namely the fluorescein labeled VAD-FMK (FAM-VAD-FMK) and sulforhodamine labeled VAD-FMK (SR-VAD-FMK) (Immunochemistry Technologies; Bloomington, Minn.) were both designed to detect the presence of active caspases within apoptotic cells. These inhibitors were dissolved in DMSO to obtain a 150× concentrated stock solution. Aliquots of these solutions were stored at −20° C. in the dark. […]
Cell staining and fluorescence measurement by LSC: The HL-60 cells from the untreated or CPT treated cultures were centrifuged (200 g, 5 min) and resuspended in PBS at approximately 10^4 cells per 5 mL volume. […]

## 5(6)-Carboxyfluorescyl-L-leucylchloromethyl ketone [FLCK]
HL-60 cells [1]
  binding of the ligand by cells treated with CPT vs untreated (control) cells: induced binding
  fluorescence of labeled cells (appearance): faint
HL-60 cells [1]; identical settings of photomultiplier sensitivity
  greater fluorescence intensity of FLCK labeled cells compared to cells labeled with FFCK: approximately 60%

## 5(6)-Carboxyfluoresceinyl-L-phenylalanylchloromethyl ketone [FFCK]
HL-60 cells [1]
  binding of the ligand by cells treated with CPT vs untreated (control) cells: induced binding
  fluorescence of labeled cells (appearance): strong

## N-tosyl-L-phenylalanine chloromethyl ketone [TPCK]
HL-60 cells [2]
  percent decrease in frequency of FLCK labeled cells vs cells treated with CPT without unlabeled inhibitor: 38.9% and 38.9 ± 1.7%
